Laboratory results published in patent US20190055283A1, “AZA-PEPTIDE ALDEHYDES AND KETONES” (OHIO STATE INNOVATION FOUNDATION, priority 2016, published 2019).

What was measured:
Assay type in all cases: biochemical
human 20S proteasome = biological target: T1, human 20S proteasome (Homo sapiens, UniProt P20618+P28074); experiment: Kinetic assay of 20S proteasome chymotryptic activity (Suc-LLVY-AMC); conditions: Suc-LLVY-AMC substrate, pH 7.8, 37° C., competitive inhibition model
T1 construct: purchased
Procedure: Kinetic assays were performed on a fluorescent 96-well plate reader with human 20S proteasome. Chymotryptic activity was measured in 20 mM HEPES, 0.5 mM EDTA, 0.037% SDS, pH 7.8 at 37° C., using 0-100 μM Suc-LLVY-AMC as the fluorogenic substrate, and […] 4.42×10^−4 mg/100 μL enzyme.
Triplicates of velocities (fluorescence vs time) were obtained at various concentrations of substrate ([…]) and aza-peptide inhibitor (0, 25, 50, 100 μM) then converted to specific activity using Lambert-Beer's law and enzyme concentration.
Enzyme specific activities were fit to a competitive inhibition model using GraphPad Prism software for nonlinear fitting.

legumain = experiment: Legumain inhibition kinetic assay
Procedure: (§1) Generally, for the 20S proteasome the enzymatic hydrolysis of fluorogenic substrate Suc-LLVY-AMC by the 20S proteasome is monitored continuously for chymotrypsin-like (CT-L) activity at λexc=360, λem=460 nm for 45 min at 30° C. under standard assay conditions (Assay buffer: pH 7.5, 20 mM Tris, 0.02% w/v SDS, 1 mM EDTA, 2% v/v DMSO). Caspase activities are measured in 100 mM HEPES, 10% sucrose, 0.1% CHAPS, 10 mM DTT, pH 7.5 and 25° C.^21 Legumain activity is measured in 0.1 M citrate-phosphate buffer at pH 6.8 containing 4 mM DTT with Cbz-AAN-AMC as the substrate^9b. Activity of the MALT1 active fragment (aa325-769) is detected by cleavage of the tetra-peptide substrate LRSR-AMC (7-amino-4-methylcoumarin) that results in fluorescence emission when AMC is released. IC50 values are determined for the new compounds by dose-dependent inhibition. In parallel, well-characterized MALT1 inhibitors (e.g. Z—VRPR-FMIK, mepazine, MI-2) are used as reference compounds. Cathepsin B activity is performed in 0.1 M phosphate, 1.25 mM EDTA, 0.01% Brij, pH 6.0. Papain activity is measured in 10 mM DTT, 50 mM phosphate, pH 6.2. Trypsin activity is performed in 0.046 M Tris/HCl buffer at pH 8.1 with 0.0115 M CaCl2.
(§2) Results from kinetic assays for compounds tested against the 20S proteasome, caspase-3, and legumain are shown in Table 4, Table 5, and Table 6, respectively.

caspase-3 = biological target: T2, caspase-3 (Homo sapiens, UniProt P42574); experiment: Caspase 3 inhibition kinetic assay
T2 construct: Professor Guy Salvesen, Burnham Institute (gift, not a purchase)
T2 sequence (P42574 29-175 limits assumed): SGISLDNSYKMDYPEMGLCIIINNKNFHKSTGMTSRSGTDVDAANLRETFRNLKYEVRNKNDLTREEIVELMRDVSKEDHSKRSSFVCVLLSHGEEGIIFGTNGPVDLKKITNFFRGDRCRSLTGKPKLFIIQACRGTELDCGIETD
Procedure: as §1, §2

Row | Ki (human 20S proteasome) [µM] | SMILES | also measured
1 | 35 | CC(C)C[C@H](NC(=O)OCc1ccccc1)C(=O)N[C@@H](CC(C)C)C(=O)NNC(=O)C=O [Z-Leu-Leu-AGly-COH, Benzyl ((S)-4-methyl-1-(((S)-4-methyl-1-oxo-1-(2-(2-oxoacetyl)hydrazinyl)pentan-2-yl)amino)-1-oxopentan-2-yl)carbamate] | 
2 | 47 | CC(=O)C(=O)N(CC(C)C)NC(=O)[C@H](Cc1ccccc1)NC(=O)[C@H](CC(C)C)NC(=O)OCc1ccccc1 [Z-Leu-Phe-ALeu-COMe, Benzyl((S)-1-(((S)-1-(2-isobutyl-2-(2-oxopropanoyl)hydrazinyl)-1-oxo-3-phenylpropan-2-yl)amino)-4-methyl-1-oxopentan-2-yl)carbamate] | 
3 | 24 | CC(C)C[C@H](NC(=O)OCc1ccccc1)C(=O)N[C@@H](CC(C)C)C(=O)NN(CC(C)C)C(=O)C=O [Z-Leu-Leu-ALeu-COH, Benzyl ((S)-1-(((S)-1-(2-isobutyl-2-(2-oxoacetyl)hydrazinyl)-4-methyl-1-oxopentan-2-yl)amino)-4-methyl-1-oxopentan-2-yl)carbamate] | 
4 | 81 | CC(C)C[C@H](NC(=O)OCc1ccccc1)C(=O)N[C@@H](CC(C)C)C(=O)NN(CC(C)C)C(=O)C(=O)Cc1ccccc1 [Z-Leu-Leu-ALeu-COBn, Benzyl ((S)-1-(((S)-1-(2-isobutyl-2-(2-oxo-3-phenylpropanoyl)hydrazinyl)-4-methyl-1-oxopentan-2-yl)amino)-4-methyl-1-oxopentan-2-yl)carbamate] | 
5 | 55 | CC(C)C[C@H](NC(=O)OCc1ccccc1)C(=O)N[C@@H](Cc1ccccc1)C(=O)NN(CC(C)C)C(=O)C(=O)Cc1ccccc1 [Z-Leu-Phe-ALeu-COBn, Benzyl ((S)-1-(((S)-1-(2-isobutyl-2-(2-oxo-3-phenylpropanoyl)hydrazinyl)-1-oxo-3-phenylpropan-2-yl)amino)-4-methyl-1-oxopentan-2-yl)carbamate] | 
6 | 27 | CC(=O)C(=O)N(CC(C)C)NC(=O)[C@H](CC(C)C)NC(=O)[C@H](CC(C)C)NC(=O)OCc1ccccc1 [Z-Leu-Leu-ALeu-COMe, Benzyl((S)-1-(((S)-1-(2-isobutyl-2-(2-oxopropanoyl)hydrazinyl)-4-methyl-1-oxopentan-2-yl)amino)-4-methyl-1-oxopentan-2-yl)carbamate] | 
7 | 29 | CC(=O)C(=O)NNC(=O)[C@H](CC(C)C)NC(=O)[C@H](CC(C)C)NC(=O)OCc1ccccc1 [Z-Leu-Leu-AGly-COMe, Benzyl((S)-4-methyl-1-(((S)-4-methyl-1-oxo-1-(2-(2-oxopropanoyl)hydrazinyl)pentan-2-yl)amino)-1-oxopentan-2-yl)carbamate] | 

Second part, the compound before the results:

Row | SMILES | Ki (human 20S proteasome) [µM] | also measured
8 | CC(=O)C(=O)N(C)NC(=O)[C@H](CC(C)C)NC(=O)[C@H](CC(C)C)NC(=O)OCc1ccccc1 [Z-Leu-Leu-AAla-COMe, Benzyl ((S)-4-methyl-1-(((S)-4-methyl-1-(2-methyl-2-(2-oxopropanoyl)hydrazinyl)-1-oxopentan-2-yl)amino)-1-oxopentan-2-yl)carbamate] | 73 | 
9 | CCOC(=O)C(=O)N(CC(C)C)NC(=O)[C@H](CC(C)C)NC(=O)[C@H](CC(C)C)NC(=O)OCc1ccccc1 [Z-Leu-Leu-ALeu-COOEt, Ethyl 2-(2-(((benzyloxy)carbonyl)-L-leucyl-L-leucyl)-1-isobutylhydrazinyl)-2-oxoacetate] |  | Ki (μM) (human 20S proteasome): weak
10 | CC(=O)C(=O)N(CC(N)=O)NC(=O)[C@H](C)NC(=O)[C@H](C)NC(=O)OCc1ccccc1 [Z-Ala-Ala-AAsn-COMe, Benzyl ((S)-1-(((S)-1-(2-(2-amino-2-oxoethyl)-2-(2-oxopropanoyl)hydrazinyl)-1-oxopropan-2-yl)amino)-1-oxopropan-2-yl)carbamate] |  | Ki (μM) (legumain): Weak
11 | C[C@H](NC(=O)OCc1ccccc1)C(=O)N[C@@H](C)C(=O)NN(CC(N)=O)C(=O)C(=O)Cc1ccccc1 [Z-Ala-Ala-AAsn-COBn, Benzyl((S)-1-(((S)-1-(2-(2-amino-2-oxoethyl)-2-(2-oxo-3-phenylpropanoyl) hydrazinyl)-1-oxopropan-2-yl)amino)-1-oxopropan-2-yl)carbamate] |  | Ki (μM) (legumain): Weak
12 | CCOC(=O)C(=O)N(CC(N)=O)NC(=O)[C@H](C)NC(=O)[C@H](C)NC(=O)OCc1ccccc1 [Z-Ala-Ala-AAsn-COOEt, Ethyl 2-(1-(2-amino-2-oxoethyl)-2-(((benzyloxy)carbonyl)-L-alanyl-L-alanyl)hydrazinyl)-2-oxoacetate] |  | Ki (μM) (legumain): Weak
13 | CC(C)C[C@H](NC(=O)OCc1ccccc1)C(=O)N[C@@H](CC(C)C)C(=O)NN(C)C(=O)C=O [Z-Leu-Leu-AAla-COH, Benzyl ((S)-4-methyl-1-(((S)-4-methyl-1-(2-methyl-2-(2-oxoacetyl)hydrazinyl)-1-oxopentan-2-yl)amino)-1-oxopentan-2-yl)carbamate] | 44 | 
14 | CC(C)[C@H](NC(=O)[C@H](CCC(=O)O)NC(=O)[C@H](CC(=O)O)NC(=O)OCc1ccccc1)C(=O)N[C@H](C=O)CC(=O)O [Z-Asp-Glu-Val-Asp-COH, reference compound] |  | IC50 (caspase-3): 4.5 nM
15 | CC(=O)C(=O)N(CC(=O)O)NC(=O)[C@@H](NC(=O)[C@H](CCC(=O)O)NC(=O)[C@H](CC(=O)O)NC(=O)OCc1ccccc1)C(C)C [Z-Asp-Glu-Val-AAsp-COMe, (5S,8S,11S)-8-(2-carboxyethyl)-5-(carboxymethyl)-11-isopropyl-3,6,9,12-tetraoxo-14-(2-oxopropanoyl)-1-phenyl-2-oxa-4,7,10,13,14-pentaazahexadecan-16-oic acid] |  | IC50 (caspase-3): 55 nM
